Data from ChEMBL document CHEMBL4373748, “Reinvestigation of Mycothiazole Reveals the Penta-2,4-dien-1-ol Residue Imparts Picomolar Potency and 8S Configuration” (ACS Med Chem Lett, 2020).

Legend:
[1] = test system: HCT-116; test: Cytotoxicity against human HCT116 cells assessed as reduction in cell viability incubated for 3 days by tryphan blue dye based assay; format: functional; settings: HCT-116, 72 h
[2] = Stability of compound in benzene-d6 by 1H-NMR analysis; format: physicochemical
[3] = test system: PANC-1; test: Cytotoxicity against human PANC1 cells assessed as reduction in cell viability incubated for 3 days by tryphan blue dye based assay; format: functional; settings: PANC-1, 72 h
[4] = (§1) Drug degradation assessed as methyl N-[(E)-8-[4-[(2E)-hexa-2,5-dienyl]-1,3-thiazol-2-yl]-3,7-dihydroxy-3-(hydroxymethyl)-8-methylnon-4-enyl]carbamate metabolite formation by measuring maximum absorbance units measured after preserving compound in amber vial containing 95% CH3CN and 5% H2O followed by drying using N2 stream and later punged-with argon in dark desiccator under vacuum for 24 hrs by ultraviolet-photoiodide array detection method; format: physicochemical
[5] = as §1, with “methanol” for “95% CH3CN and 5% H2O”, “stream” for “stream and later punged-with argon in dark desiccator under vacuum”, “hrs at room temperature” for “hrs”; format: physicochemical
[6] = as §1, with “followed by exposure to direct light” for “and later punged-with argon in dark desiccator under vacuum”; format: physicochemical
[7] = Stability of compound assessed as shelf life measured after preserving compound in amber vial containing 95% CH3CN and 5% H2O followed by drying using N2 stream and later punged-with argon in dark desiccator under vacuum for 24 hrs; format: physicochemical
[8] = (§2) Drug degradation assessed as methyl N-[(E)-8-[4-[(2E)-hexa-2,5-dienyl]-1,3-thiazol-2-yl]-3,7-dihydroxy-3-(hydroxymethyl)-8-methylnon-4-enyl]carbamate metabolite formation by measuring relative abundance measured after preserving compound in amber vial containing 95% CH3CN and 5% H2O followed by drying using N2 stream followed by exposure to direct light for 24 hrs by LC-MS-TIC analysis; format: physicochemical
[9] = Stability of compound assessed as shelf life measured after preserving compound in amber vial containing 95% CH3CN and 5% H2O followed by drying using N2 stream and later punged-with argon followed by exposure to 4 degC for 24 hrs; format: physicochemical
[10] = as §2, with “stream and later punged-with argon” for “stream”, “4 degC” for “direct light”; format: physicochemical
[11] = as §1, with “relative abundance” for “measuring maximum absorbance units”, “LC-MS-TIC analysis” for “ultraviolet-photoiodide array detection method”; format: physicochemical
[12] = as §2, with “methanol” for “95% CH3CN and 5% H2O”, “stream” for “stream followed by exposure to direct light”, “hrs at room temperature” for “hrs”; format: physicochemical
[13] = test system: HepG2; test: Cytotoxicity against human HepG2 cells assessed as reduction in cell viability incubated for 3 days by tryphan blue dye based assay; format: functional; settings: HepG2, 72 h
[14] = as §1, with “followed by exposure to 4 degC” for “in dark desiccator under vacuum”; format: physicochemical
[15] = as §1, with “methanol” for “95% CH3CN and 5% H2O”, “air” for “N2”, “stream” for “stream and later punged-with argon in dark desiccator under vacuum”, “hrs at room temperature” for “hrs”; format: physicochemical
[16] = as §2, with “methanol” for “95% CH3CN and 5% H2O”, “air” for “N2”, “stream” for “stream followed by exposure to direct light”, “hrs at room temperature” for “hrs”; format: physicochemical

C=CC/C=C\Cc1csc(C(C)(C)[C@H](O)C/C=C/C(O)(CO)CCNC(=O)OC)n1 (stereo partly specified)
IC50 [1]: > 1000 nM

C=CC/C=C/Cc1csc(C(C)(C)[C@@H](C/C=C\C(=C)CCNC(=O)OC)OC(C)=O)n1
Stability [2]: >= 6 months | IC50 [3]: 1.3 nM

C=CC/C=C\Cc1csc(C(C)(C)[C@H](O)CC2C=C(CCNC(=O)OC)CON2c2ccccc2)n1 (stereo partly specified)
IC50 [3]: > 1000 nM

C=CC/C=C/Cc1csc(C(C)(C)[C@H](O)C/C=C\C(=C)CCNC(=O)OC)n1
Drug degradation [4]: 500000 a.u. | IC50 [1]: 0.35 nM | Drug degradation [5]: 500000 a.u. | Drug degradation [6]: 280000 a.u. | Stability [7]: 3 to 6 weeks | Drug degradation [8]: 60% | IC50 [3]: 0.16 nM | Stability [9]: 3 to 6 weeks | Drug degradation [10]: 20% | Drug degradation [11]: 20% | Drug degradation [12]: 45% | IC50 [13]: 0.27 nM | Drug degradation [14]: 500000 a.u. | Drug degradation [15]: 500000 a.u. | Drug degradation [16]: 45%

C=CC/C=C\Cc1csc(C(C)(C)C(=O)C/C=C\C(=C)CCNC(=O)OC)n1
IC50 [3]: 2000 nM

C=CC/C=C\Cc1csc(C(C)(C)C(O)CC2C=C(CCNC(=O)OC)CN(c3ccccc3)O2)n1 (single isomer, unassigned)
IC50 [3]: > 1000 nM
